What was measured:
PKC-α = conditions: 20 μM-5 QμM Lactacysteine; cited from earlier work
Hermissenda Crassicornis = test: Pavlovian conditioning of Hermissenda (retention of conditioned response); assay type: in vivo; conditions: for effect on bryostatin memory enhancement: 6 TE with bryostatin; for effect on long-term retention: anisomycin 1 μg/ml for four hours post-training (2 TE) after three-day bryostatin treatment
Protocol: Bryostatin exposure—Specimens of Hermissenda Crassicornis were maintained in artificial sea water (ASW) at 15° for three days in perforated 50-ml conical centrifuge tubes before starting experiments. Bryostatin, purified from the marine bryozoan Bugula neritina, was dissolved in EtOH and diluted to its final concentration in ASW. […] For selected experiments lactacysteine (10 μM) or anisomycin was added to the ASW.
Bryostatin effects on Hermissenda behavior and biochemistry were produced by adding the drug to the bathing medium within an 8 cm long, 1 cm diameter test tube housing each individual animal.
Pavlovian conditioning of Hermissenda involves repeated pairings of a neutral stimulus, light, with an unconditioned stimulus, orbital shaking. (See, Lederhendler et al. (24) and Epstein et al. (6)). A rotation/shaking stimulus excites the statocyst hair cells and thereby elicits an unconditioned response: a brisk contraction of the muscular undersurface called a foot, accompanied by adherence or “clinging” to the surface that supports the foot. Before conditioning, light elicits a weakly positive phototaxis accompanied by lengthening of the foot. After sufficient light-rotation pairings, light no longer elicits phototaxis, but instead elicits a new response (24): the “clinging” and foot shortening previously elicited only by the unconditional stimulus (FIG. 1). Thus, the meaning of the unconditioned stimulus, rotation or orbital shaking, has been transferred to the conditioned stimulus and is manifested by a light-elicited foot contraction—a negative change of foot length. This conditioned response to light can last for weeks, is not produced by randomized light and rotation, is stimulus-specific, and shares the other defining characteristics of mammalian Pavlovian Conditioning.
Pavlovian conditioning of Hermissenda has well-defined training parameters that produce progressively longer-lasting retention of the learned conditioned response. Two training events (2 TE) of paired light and orbital shaking (see “Methods”), for example, induce a learned conditioned response (light-elicited foot contraction or shortening) that persists without drug treatment for approximately 7 minutes. Four to six training events (4-6 TE) induce a conditioned response that persists up to several hours, but disappears approximately by 1 day after training. Nine TE produces long-term associative memory lasting many days and often up to two weeks.

[1] = tested on: Rat hippocampal H19-7/IGF-IR cells; test: Protein synthesis by [35S]Methionine incorporation; assay type: cell-based; conditions: PKC inhibitor Ro-32 also present
Protocol: FIG. 17 depicts the effects of bryostatin on protein synthesis. Rat IGF-IR cells were incubated for 30 minutes with 0.28 nM bryostatin for incubation times ranging from 1 to 79 hours. [^35S]Methionine (9.1 μCi) was then added to the medium followed by analysis of radiolabel.
Rat hippocampal H19-7/IGF-IR cells (ATCC) were plated onto poly-L-lysine coated plates and grown at 35° in DMEM/10% FCS for several days until approx. 50% coverage was obtained. The cells were then induced to differentiate into a neuronal phenotype by replacing the medium with 5 ml N2 medium containing 10 ng/ml basic fibroblast growth factor and grown in T-25 flasks at 39° C. (26). Various concentrations of bryostatin (0.01-1.0 nM) were then added in 10 μl aqueous solution. After a specified interval, the medium was removed and the cells were washed with PBS, removed by gentle scraping, and collected by centrifugation at 1000 rpm for 5 min.
In fact, we found here that a single 30-minute exposure to 0.28 nM bryostatin increased overall protein synthesis (FIG. 17), measured by incorporation of ^35-S Methionine in the last ½ hour before collecting the neurons, by 20% within 24 h, increasing to 60% by 79 hours after the bryostatin exposure.

calexcitin = test: Calexcitin immunostaining in B-photoreceptors; assay type: in vivo, Hermissenda
Protocol: Following experimental treatments and testing, animals were rapidly decapitated, the central nervous systems (CNS) removed and then fixed in 4% para-formaldehyde in 20 mM Tris-buffered (pH 8) natural seawater (NSW; 0.2 μm micropore-filtered). The CNSs were then embedded in polyester wax (20), sectioned (6 μm) and immunostained using a biotinylated secondary antibody coupled to avidin-bound microperoxidase (ABC method, Vector), Aminoethylcarbazole (AEC) was used as the chromogen. The primary polyclonal antibody (designated 25U2) was raised in rabbits from the full length calexcitin protein extracted from squid optic lobes. Gray-scale intensity measures were done from digital photomicrographs on circumscribed cytoplasmic areas of the B-photoreceptors minus the same background area (non-staining neuropile).

PKC = test: Protein kinase C assay (histone phosphorylation) in Hermissenda nervous systems; assay type: in vivo; conditions: anisomycin (1.0 ng/ml) with each bryostatin (0.25 ng/ml) exposure on three successive days
Protocol: Bryostatin exposure—Specimens of Hermissenda Crassicornis were maintained in artificial sea water (ASW) at 15° for three days in perforated 50-ml conical centrifuge tubes before starting experiments. Bryostatin, purified from the marine bryozoan Bugula neritina, was dissolved in EtOH and diluted to its final concentration in ASW. Animals were incubated with bryostatin in ASW for 4 hr, then rinsed with normal ASW. For selected experiments lactacysteine (10 μM) or anisomycin was added to the ASW.
Cells were homogenized by sonication (5 sec, 25 W) in 100 μl of 10 mM Tris-HCl pH 7.4 buffer containing 1 mM EGTA, 1 mM PMSF, and 50 mM NaF. Homogenate was transferred to a polyallomer centrifuge tube and was centrifuged at 100,000×g for 10 min at 4°. The supernatant was removed and immediately frozen on dry ice. The particulate fraction was resuspended by sonication in 100 μl of the same buffer and stored at −80°. To measure PKC, 10 μl of cytosol or particulate fraction was incubated for 15 min at 37° in the presence of 10 μM histones, 4.89 mM CaCl2, 1.2 μg/μl phosphatidyl-L-serine, 0.18 μg/μl 1,2-dioctanoyl-sn-glycerol, 10 mM MgCl2, 20 mM HEPES (pH 7.4), 0-8 mM EDTA, 4 mM EGTA, 4% glycerol, 8 μg/ml aprotinin, 8 μg/ml leupeptin, and 2 mM benzamidine. 0.5 μCi [γ^32P]ATP was added and ^32P-phosphoprotein formation was measured by adsorption onto phosphocellulose as described previously (25). This assay was used with slight adjustments for either Hermissenda nervous system homogenates or cultured mammalian neuron homogenates
Intact Hermissenda were exposed for 4 hour intervals to bryostatin (0.28 nM) on successive days under conditions described (“Behavioral Pharmacology”). Histone phosphorylation (See “Methods”) in isolated circumesophageal nervous systems was then measured in the cytosol fraction. […] (FIG. 12, 13). […] After an initial activation (via translocation), this bryostatin effect is most likely due to increased synthesis of PKC, consistent with the increased levels of calexcitin induced by bryostatin, but not directly correlated with repeated bryostatin exposure.

sAPP secretion = conditions: cited from earlier work
[2] = vitamin E 2000 IU/day; cited from earlier work
[3] = tested on: diacylglycerol-protein kinase C activation; conditions: aorta of diabetic rats; cultured rat smooth muscle cells, elevated glucose; cited from earlier work

Molecule: CC(=O)N[C@@H](CSC(=O)[C@]1([C@@H](O)C(C)C)NC(=O)[C@H](C)[C@@H]1O)C(=O)O [Lactacysteine]
- degradation of PKC-α (PKC-α): largely prevented
- acquisition or retention of behavioral training (Hermissenda Crassicornis; lactacysteine only 10 μM 4 h, 2-paired TEs 24 hrs later): no acquisition or retention of behavioral training
- duration of memory after single bryostatin exposure followed by 2 TE (Hermissenda Crassicornis; with lactacysteine): many days

Molecule: CN(C)C[C@H]1CCn2c(c(C3=C(c4cn(C)c5ccccc45)C(=O)NC3=O)c3ccccc32)C1 [Ro-32]
- effect on bryostatin-induced increase of protein synthesis [1]: partially blocked
- effect on bryostatin-induced increase of protein synthesis ([1]; listed as Ro-32-0432): increasing significantly less
- effect on bryostatin memory enhancement (Hermissenda Crassicornis): blocked
- effect on 6 TE plus bryostatin conditioning (Hermissenda Crassicornis; Ro-32 applied pre-training (during dark adaptation)): blocked
- effect on memory consolidation (Hermissenda Crassicornis; Ro-32 during the training plus bryostatin): did prevent memory consolidation
- effect on long-term memory induction (Hermissenda Crassicornis; Ro-32 immediately after bryostatin plus training): did not prevent long-term memory induction
- effect on learning-specific calexcitin increases in Type B cell (calexcitin; Ro-32): prevented both learning and learning-specific calexcitin increases

Molecule: COc1ccc(C[C@H]2NC[C@H](O)[C@H]2OC(C)=O)cc1 [anisomycin]
- effect on PKC activity, cytosolic and membrane fractions (PKC): markedly reduced the PKC activity
- effect on bryostatin memory enhancement (Hermissenda Crassicornis): blocked
- effect on memory retention produced by 9 TE (Hermissenda Crassicornis; 4 hour anisomycin treatment, no bryostatin): eliminated all memory retention
- effect on long-term retention (Hermissenda Crassicornis): did not prevent memory retention
- effect on long-term retention (Hermissenda Crassicornis; listed as Anisomycin): did not prevent long-term retention
- effect on retention produced by single 4-hour bryostatin plus 2 TE (Hermissenda Crassicornis; anisomycin 1.0 μg/ml immediately post-training, tested after 4 h): showed no CR
- effect on memory formation (Hermissenda Crassicornis; anisomycin after training with and without bryostatin): completely blocked memory formation
- effect on long-term memory (Hermissenda Crassicornis; anisomycin during training with and without bryostatin): did not prevent long-term memory
- effect on long-term memory (Hermissenda Crassicornis; anisomycin with each of three successive daily 4 hour bryostatin exposures, 2 TE one day after): long-term memory was eliminated
- effect on calexcitin level (calexcitin; anisomycin immediately after 2-paired TEs following 3 days of 4-hr bryostatin): did not reduce this calexcitin level

Molecule: CN[C@@H]1C[C@H]2O[C@@](C)([C@@H]1OC)n1c3ccccc3c3c4c(c5c6ccccc6n2c5c31)C(=O)NC4 [staurosporine]
- effect on benzolactam-induced sAPP secretion (sAPP secretion; control and AD fibroblasts): eliminated the effects of benzolactam

Molecule: benzolactam
- sAPP secretion (sAPP secretion; benzolactam-treated cells): enhance sAPP secretion over basal levels
- concentration giving significant increases of sAPP secretion (sAPP secretion; control fibroblasts): 10 µM

Molecule: vitamin E
- clinical outcome [2]: reduced mortality and morbidity, but did not enhance cognitive abilities
- diacylglycerol-protein kinase C activation [3]: normalize diacylglycerol-protein kinase C activation

From patent US8703812B2, “Protein synthesis required for long-term memory is induced by PKC activation on days preceding associative learning” (Blanchette Rockefeller Neurosciences Institute, priority 2005, dated 2014)
